Results: PubChem BioAssay AID504313 (Emory University Molecular Libraries Screening Center, 2011)
Calls of active or inactive are those of the source. No rule for the calls is given here.

target: X-box-binding protein 1 (Homo sapiens) (UniProt P17861); experiment: inhibitors of XBP1 reporter signal, dose response, counter-screen, cell-based (AID 504313); conditions: XBP1 reporter cell assay, percent of control;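 also: CHO cells carrying an XBP1 reporter stimulated with tunicamycin; potency is for inhibition of the tunicamycin-induced reporter signal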

SMILES	IC50
CCCOc1ccccc1C1CC(=O)NC(C)=C1C(=O)OCC(C)C (configuration not stated)	inactive
CCOC(=O)CN1C(c2ccc(O)cc2)Nc2ccc(Br)cc2C1c1ccccc1 (configuration not stated)	> 10 µM (inactive)
CC(=O)OCC1O[C@@H](O[C@@H]2C[C@H]3C(C)(C)[C@H](OC(C)=O)CC[C@]3(C)[C@H]3CC[C@]45C[C@]4(CC[C@H]5[C@@H](C)C[C@@H](O)[C@H](O)C(C)(C)O)[C@@]32C)[C@H](O)[C@@H](O)[C@@H]1O (some centres not stated)	inactive
CCCOC(=O)c1ccc(Oc2cn[nH]c2-c2ccc(OCC)cc2O)cc1	inactive
CC(NC(=O)/C(C#N)=C/c1ccc(Cl)c([N+](=O)[O-])c1)c1ccccc1 (configuration not stated)	> 10 µM (inactive)
Cc1ccccc1NC(=O)/C=C/c1ccc([N+](=O)[O-])s1	inactive
CC(C)C[C@H](NC(=O)OC(C)(C)C)c1nnc(SCC(=O)Nc2ccc(Br)cc2)o1	4.92 µM
CC1CN(S(=O)(=O)c2ccc(C(=O)Nc3nc(-c4cc5ccccc5o4)cs3)cc2)CC(C)O1 (configuration not stated)	> 10 µM (inactive)
COc1ccc(C(=O)NNC(=O)c2ccccn2)cc1	inactive
CC(/C=N/n1c(C2CCCCC2)n[nH]c1=S)=C\c1ccccc1	> 10 µM (inactive)
COc1ccccc1NC(=O)c1c(Nc2ccccc2C)sc(C(=O)Nc2cccc(Cl)c2)c1N	> 10 µM (inactive)
COc1ccc(CC2(CO)CCN(CC3=Cc4cc(Cl)ccc4OC3)CC2)cc1	2.67 µM
CCC1CCCCN1S(=O)(=O)c1ccc(C(=O)Nc2nnc(-c3ccccc3Cl)o2)cc1 (configuration not stated)	inactive
O=S(=O)(Nc1ccccc1)c1ccc(Oc2ncc(C(F)(F)F)cc2Cl)cc1	2.15 µM
O=C(Nc1ccc(OC(F)F)cc1)Nc1cccc(C(F)(F)F)c1	> 10 µM (inactive)
COc1ccccc1-c1cc(C(F)(F)F)nc(S(=O)(=O)CCCC(=O)Nc2cccnc2Cl)n1	> 10 µM (inactive)
O=S1(=O)C=C(Sc2nnc(-c3ccccc3)o2)c2ccccc21	inactive
O=C(OCn1ncc(Br)c(Br)c1=O)c1c(F)cccc1F	3.06 µM
CCN1/C(=C/C(C)=C/c2sc3ccccc3[n+]2CC)Sc2ccccc21	> 10 µM (inactive)
CCCCCCN=C(CC)c1c(O)n(CCCC)c(=O)[nH]c1=O	inactive
S=C(NCCc1ccc(Cl)cc1)Nc1ccc(Cl)cc1Cl	> 10 µM (inactive)
C#CC(=O)N(c1cccc(OC)c1)C(C(=O)NC1CCCC1)c1cccs1 (configuration not stated)	inactive
COc1ccc(OCc2cccc(C(=O)O)c2)cc1	0.4 µM
Cc1ccc(NN2C(=O)C=C(c3ccc(Cl)cc3)C2=O)cc1	inactive
CN1/C(=C/C(=O)c2nc(S(C)(=O)=O)ncc2Cl)C(C)(C)c2ccccc21	inactive

SMILES	IC50
COc1ccc(OC)c2sc(NC(=O)c3ccc(Cl)s3)nc12	> 10 µM (inactive)
CCOc1ccc2nc(NC(=O)CSc3nc4c(c(=O)n(C)c(=O)n4C)n3C(C)C)sc2c1	> 10 µM (inactive)
COCCn1cnc2c(c1=O)c1nc3ccccc3nc1n2/N=C/c1cccc(OC)c1	inactive
Cc1ccc2sc(N(CCCN(C)C)C(=O)c3nc4ccccc4s3)nc2c1C	inactive
Cc1nnc(NC(=O)c2sc3nc(-c4cccs4)cc(C(F)(F)F)c3c2N)s1	inactive
COc1ccc(NC(=O)/C(Cl)=C(/Cl)S(=O)Cc2ccccc2Cl)cn1 (configuration not stated)	0.92 µM
O=C(OCn1ncc(Br)c(Br)c1=O)c1ccccc1Cl	4.81 µM
COC(=O)c1ccc2c(c1)C(C)(C)C(/C=C/c1ccc(OC)c(OC)c1OC)=[N+]2C	inactive
Oc1ccc(Cl)cc1-c1cc(-c2ccccc2)n[nH]1	> 10 µM (inactive)
CNc1ccc2oc(C[C@H]3O[C@@]4(CC[C@H]3C)O[C@H]([C@H](C)C(=O)c3ccc[nH]3)[C@H](C)C[C@H]4C)nc2c1C(=O)O	1.41 µM
CS(=O)(=O)c1nc(-c2ccc(F)cc2)cc(C(F)(F)F)n1	inactive
OC(CNCC1CCCO1)Cn1c2ccc(Br)cc2c2cc(Br)ccc21 (configuration not stated)	> 10 µM (inactive)
O=C1CC(Sc2nnnn2-c2ccccc2)C(=O)N1c1cccc(Cl)c1 (configuration not stated)	> 10 µM (inactive)
FC(F)(F)c1ccc(/C=N/NC(=S)NC2CCCCC2)cc1	> 10 µM (inactive)
C=C(C)COc1ccc(-c2n[nH]c(C)c2-c2ccc(Br)cc2)c(O)c1	inactive
O=S(=O)(N/N=C/c1ccc(Cl)cc1)c1ccc(Cc2ncc(C(F)(F)F)cc2Cl)s1	inactive
Cc1ccc(-c2ccc(/C=C3\C(=O)ON=C3c3ccccc3)o2)c([N+](=O)[O-])c1	> 10 µM (inactive)
CCC(C)(C)c1ccc(Oc2ccc(N)cc2)cc1	< 0.16 µM
C=CCn1c(CCc2cc(C(C)(C)C)c(O)c(C(C)(C)C)c2)n[nH]c1=S	inactive
CN1CC(c2ccccc2)C2(SC(=S)N(Cc3ccco3)C2=O)C12C(=O)Nc1ccccc12 (configuration not stated)	> 10 µM (inactive)
CC(=O)C(C(C)=O)c1c(Cl)c(O)c(O)c2c(C(=O)c3ccccc3)coc12	inactive
CC(C)c1ccc(-c2cc(C(=O)N3N=C(C(F)F)CC3(O)C(F)F)c3ccccc3n2)cc1 (configuration not stated)	5.02 µM
CCOc1cc(S(=O)(=O)Nc2ccc(CC)cc2)ccc1Cl	inactive
COc1ccc(-c2nn(-c3ccccc3)cc2/C=N/NC(=O)c2ccc(Br)o2)cc1	inactive
NC(=S)n1[nH]c(-c2ccc([N+](=O)[O-])cc2)c(N=Nc2ccc(Cl)cc2)c1=O	inactive

SMILES	IC50
CC1(C)C[C@H]2C=C(C=O)[C@]3(C=O)C[C@]3(C)[C@H]2C1	2.35 µM
CCCNC(=O)c1nnsc1S(=O)(=O)c1ccc(Cl)cc1	0.87 µM
C=C1C(=O)O[C@@H]2C[C@@H](C)[C@@H]3C=CC(=O)[C@@]3(C)[C@@H](OC(C)=O)[C@H]12	2.2 µM
O=C(Nc1ccc(S(=O)(=O)N2CCOCC2)cc1)c1ccc(CN2CCc3ccccc3C2)cc1	inactive
CCOC(=O)Cc1cc(-c2ccc(O)cc2)nc2ccc3ccccc3c12	> 10 µM (inactive)
CCOC(=O)c1c2ccc(OCC(=O)N/N=C/c3ccc(C)cc3)cc2n2ccccc12	inactive
O=C(c1ccc(Cl)cc1)N1CCC(O)(CSc2ccc(Cl)cc2Cl)CC1	> 10 µM (inactive)
CC(C)CCSc1nc2c(c(=O)[nH]c(=O)n2C)n1CCCc1ccccc1	> 10 µM (inactive)
COc1cc(OC)cc(-c2nc3ccccc3c(=O)n2OC(=O)c2ccc(Br)cc2)c1	> 10 µM (inactive)
Cc1nc(SCC(=O)Nc2ccc(C)c(F)c2)c2oc3ccccc3c2n1	> 10 µM (inactive)
Cc1ccc(CNCC(O)(c2ccccc2)c2ccc(Cl)cc2)cc1 (configuration not stated)	inactive
O=Cc1s/c(=N\S(=O)(=O)c2ccccc2)n(CCCCl)c1Cl	inactive
O=C(Cc1csc(Nc2nc(=S)[nH]c3ccccc23)n1)NCCCN1CCN(c2ccccc2F)CC1	> 10 µM (inactive)
O=C(O)c1ccc(N/N=C/c2ccc3nccnc3c2)cc1	1.83 µM
Cc1ccc(C(=O)Nc2cnc3ccccc3c2)cc1	4.09 µM
O=C1C=CC(=O)N1N(c1ccccc1)c1ccccc1	> 10 µM (inactive)
Cc1ccc(NC(=O)NC(=O)CN2C(=O)NC3(CCCCCCC3)C2=O)c(C)c1	> 10 µM (inactive)
CCOC(=O)Cc1csc(NC(=O)NC2(C(F)(F)F)Oc3cc(Cl)c(Cl)cc3O2)n1	inactive
COC(=O)c1ccccc1NC1=C/C(=N\S(=O)(=O)c2cccs2)c2ccccc2C1=O	inactive
CC(C)(C)C(=O)Nc1ccc(-c2nc3ccccc3c(=O)o2)cc1	1.2 µM
Cc1cccc(C(=O)c2cnc3ccccc3c2-c2ccccc2)c1	> 10 µM (inactive)
Cc1cccc(C)c1N1CCN(c2ccc3nnc(C(F)(F)F)n3n2)CC1	> 10 µM (inactive)
CC(C)COc1ccc(/C(=N/O)c2ccccc2)cc1	inactive
CCC(CC)c1nnc(NC(=O)c2c(C)nn(Cc3ccccc3Cl)c2C)s1	> 10 µM (inactive)
COc1ccc(NC(=S)NC(NC(=O)/C=C/c2ccccc2)C(Cl)(Cl)Cl)cc1 (configuration not stated)	> 10 µM (inactive)

SMILES	IC50
COc1ccccc1-n1cc([C@@H]2C[C@H]3CN(c4ccccc4)C(=O)[C@]34CCCN24)cn1	0.74 µM
O=C1NC[C@@H](Cc2cccc3ccccc23)N(CCc2cc(C(F)(F)F)cc(C(F)(F)F)c2)C1=O	inactive
CCOC(=O)c1nc(S(C)(=O)=O)ncc1Cl	inactive
CC(C)Oc1cc(NC(=O)CS(=O)CC(=O)Nc2cccc(C(F)(F)F)c2)c(Cl)cc1Cl (configuration not stated)	inactive
CCOC(=O)/C(=C\c1ccc(OC(F)F)cc1)C1=Nn2c(nnc2-c2ccc(Cl)cc2)SC1	4.7 µM
O=C(O)c1cccc(COc2ccccc2Cl)c1	0.91 µM
CS(=O)(=O)c1ncc(Cl)c(C(=O)Nc2ccc(N3CCOCC3)cc2)n1	inactive
S=c1[nH]nc(C2CCCCC2)n1/N=C/C=C/c1ccccc1	> 10 µM (inactive)
O=C(On1c(-c2ccccc2)nc2ccccc2c1=O)c1ccco1	> 10 µM (inactive)
CCc1ccc(OCC(=O)NC(NC(=S)Nc2ccccc2)C(Cl)(Cl)Cl)cc1 (configuration not stated)	> 10 µM (inactive)
O=C(Nc1ccc(Cl)c(C(F)(F)F)c1)NC1CC2CCCC(C1)N2Cc1ccccc1 (configuration not stated)	> 10 µM (inactive)
C[C@H](NC(=O)c1[nH]cnc1C(=O)Nc1ccc(Cl)cc1)C(=O)OC(C)(C)C	inactive
O=S(=O)(C/C(=C/CO)S(=O)(=O)c1ccccc1)c1ccccc1	3.44 µM
Cc1nn(-c2ccccc2)c(Cl)c1CN(C(=O)CCl)c1ccc(Cl)cc1	3.3 µM
CC1CCCC(NCC(O)COC(c2ccc(F)cc2)c2ccc(F)cc2)C1C (configuration not stated)	inactive
CCCCCCCn1c(=O)c(C(=O)Nc2cnccn2)c(O)c2ccccc21	2.1 µM
O=C(C1=C(c2ccccc2)C(=O)c2ccccc2C1=O)c1ccccc1	inactive
CC(C)Cn1c(N)c(C(=O)COC(=O)C2CCCCC2)c(=O)n(C)c1=O	> 10 µM (inactive)
OC(CNCCc1ccc(C(F)(F)F)cc1)COc1ccc2ccccc2c1 (configuration not stated)	inactive
COC(=O)C[C@]1(C(=O)OC)CN(C#N)N(c2ccc(Cl)cc2)C12c1ccccc1-c1ccccc12	4.38 µM
Cn1c(=O)[nH]c(=O)c2[nH]c(N(Cc3ccccc3)Cc3ccccc3)nc21	> 10 µM (inactive)
Cc1nc(SCC(=O)Nc2cc(C)on2)c2c3c(sc2n1)CCCC3	> 10 µM (inactive)
